The results in this text go back to patent US20260216170A1, “TETRAHYDROISOQUINOLINE HETEROBIFUNCTIONAL BCL-XL DEGRADERS” (Treeline Biosciences, Inc., priority 2023, published 2026).

The test addresses T1, Human BCL-XL protein (N-terminal HiBiT tagged BCL-XL expressed in HT1080 cells) (Homo sapiens, UniProt Q07817).
T1 construct: expressed in transfected cells; host or cells: HT-1080 (ATCC CCL-121), stably transduced with lentivirus pLV-UBC-N-HiBiT-BCL-XL-PGK-puro and selected with puromycin
The experiment in a line: HiBiT Based Degradation Assay. Type of test: cell-based. The note with it: 24 hours incubation; for DC50: BCL-XL degradation, HT1080 cells expressing N-HiBiT-BCL-XL, normalized with DMSO control, geometric mean for multiple data points, read-out: EC50 (24 h); for Ymin (24 h): bottom of BCL-XL degradation curve (remaining HiBiT-BCL-XL signal vs DMSO control), HT1080 cells. The method in brief:
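BCL-XL degradation was read as Nano-Glo HiBiT lytic luminescence relative to DMSO after a 24 h compound treatment of HT1080 cells carrying stably integrated N-HiBiT-BCL-XL. EC50 values come from four-parameter logistic curves, with the hook-curve minimum fixed as bottom, and are geometric means where tested repeatedly.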
Background: HiBiT is a short tag that completes a luciferase, so light tracks the accessible tagged protein.

T1 sequence (Q07817 whole entry): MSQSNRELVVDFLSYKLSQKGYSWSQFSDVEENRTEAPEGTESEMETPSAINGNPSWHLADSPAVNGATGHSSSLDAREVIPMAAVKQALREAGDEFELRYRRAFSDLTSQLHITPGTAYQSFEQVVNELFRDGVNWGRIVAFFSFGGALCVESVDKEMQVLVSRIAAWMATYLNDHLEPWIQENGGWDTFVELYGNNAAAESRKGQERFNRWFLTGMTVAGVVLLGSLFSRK

As for `Cc1cc2c(C3CCC(=O)NC3=O)nn(C)c2cc1NC(=O)CN1CCC2(CC1)CC(COc1cccc(-c3ccc(N4CCc5cccc(C(=O)Nc6nc7ccccc7s6)c5C4)nc3C(=O)O)c1C)C2` (stereo not drawn) [Compound 118], the DC50 is 0.1 to 1 µM and the “Ymin (24 h)” value is listed as “B (30% ≤ Ymin < 50%)”.
`COc1c(NC(=O)CN2CCC(CCCOc3cccc(-c4ccc(N5CCc6cccc(C(=O)Nc7nc8ccccc8s7)c6C5)nc4C(=O)O)c3C)CC2)ccc2c(C3CCC(=O)NC3=O)nn(C)c12` (stereo not drawn) [Compound 104, 6-[8-(1,3-benzothiazol-2-ylcarbamoyl)-3,4-dihydro-1H-isoquinolin-2-yl]-3-[3-[3-[1-[2-[[3-(2,6-dioxo-3-piperidyl)-7-methoxy-1-methyl-indazol-6-yl]amino]-2-oxo-ethyl]-4-piperidyl]propoxy]-2-methyl-phenyl]pyridine-2-carboxylic acid]: the DC50 fell in the range of 0.01 to 0.1 µM and the “Ymin (24 h)” value is “B (30% ≤ Ymin < 50%)”.
On the same counts, the results for `Cn1nc(C2CCC(=O)NC2=O)c2ccc(NC(=O)CN3CCC4(CC3)CC(Oc3ccc(-c5ccc(N6CCc7cccc(C(=O)Nc8nc9ccccc9s8)c7C6)nc5C(=O)O)c(C(F)(F)F)c3)C4)cc21` (stereo not drawn) [Compound 155, 6-(8-(benzo[d]thiazol-2-ylcarbamoyl)-3,4-dihydroisoquinolin-2(1H)-yl)-3-(4-((7-(2-((3-(2,6-dioxopiperidin-3-yl)-1-methyl-1H-indazol-6-yl)amino)-2-oxoethyl)-7-azaspiro[3.5]nonan-2-yl)oxy)-2-(trifluoromethyl)phenyl)picolinic acid] are less than 0.01 µM and “A (Ymin < 30%)”.
Turning to `Cc1c(OC[C@H]2C[C@@H]2CC2CCN(CC(=O)Nc3ccc4c(C5CCC(=O)NC5=O)nn(C)c4c3)CC2)cccc1-c1ccc(N2CCc3cccc(C(=O)Nc4nc5ccccc5s4)c3C2)nc1C(=O)O` (single isomer, unassigned) [Compound 1004a], the DC50 was 0.01 to 0.1 µM and the “Ymin (24 h)” value is reported as “B (30% ≤ Ymin < 50%)”.
As for `Cc1c(OCCCC2CCN(CC(=O)Nc3ccc4c(C5CCC(=O)NC5=O)nn(C)c4c3)CC2)cccc1-c1ccc(N2CCc3ccnc(C(=O)Nc4nc5ccccc5s4)c3C2)nc1C(=O)O` (stereo not drawn) [Compound 106, 6-(8-(benzo[d]thiazol-2-ylcarbamoyl)-3,4-dihydro-2,7-naphthyridin-2(1H)-yl)-3-(3-(3-(1-(2-((3-(2,6-dioxopiperidin-3-yl)-1-methyl-1H-indazol-6-yl)amino)-2-oxoethyl)piperidin-4-yl)propoxy)-2-methylphenyl)picolinic acid], the DC50 was 0.01 to 0.1 µM and the “Ymin (24 h)” value is reported as “B (30% ≤ Ymin < 50%)”.
For `Cc1c(OC2CC3(CCN(CC(=O)Nc4ccc5c(C6CCC(=O)NC6=O)nn(C)c5c4F)CC3)C2)cccc1-c1ccc(N2CCc3ccnc(C(=O)Nc4nc5ccccc5s4)c3C2)nc1C(=O)O` (stereo not drawn) [Compound 204, 6-(8-(benzo[d]thiazol-2-ylcarbamoyl)-3,4-dihydro-2,7-naphthyridin-2(1H)-yl)-3-(3-((7-(2-((3-(2,6-dioxopiperidin-3-yl)-7-fluoro-1-methyl-1H-indazol-6-yl)amino)-2-oxoethyl)-7-azaspiro[3.5]nonan-2-yl)oxy)-2-methylphenyl)picolinic acid], the DC50 is less than 0.01 µM and the “Ymin (24 h)” value was “B (30% ≤ Ymin < 50%)”.
On the same counts, the results for `Cc1cc(OC2CC3(CCN(CC(=O)Nc4ccc5c(C6CCC(=O)NC6=O)nn(C)c5c4)CC3)C2)ccc1-c1ccc(N2CCc3ccnc(C(=O)Nc4nc5ccccc5s4)c3C2)nc1C(=O)O` (stereo not drawn) [Compound 167, 6-[8-(1,3-benzothiazol-2-ylcarbamoyl)-3,4-dihydro-1H-2,7-naphthyridin-2-yl]-3-[4-[[7-[2-[[3-(2,6-dioxo-3-piperidyl)-1-methyl-indazol-6-yl]amino]-2-oxo-ethyl]-7-azaspiro[3.5]nonan-2-yl]oxy]-2-methyl-phenyl]pyridine-2-carboxylic acid] are less than 0.01 µM and “A (Ymin < 30%)”.
In the case of `Cc1cc(OCCC[C@H]2CCN(CC(=O)Nc3ccc4c(C5CCC(=O)NC5=O)nn(C)c4c3)[C@@H](C)C2)ccc1-c1ccc(N2CCc3ccnc(C(=O)Nc4nc5ccccc5s4)c3C2)nc1C(=O)O` (stereo partly drawn) [Compound 219b, 6-(8-(benzo[d]thiazol-2-ylcarbamoyl)-3,4-dihydro-2,7-naphthyridin-2(1H)-yl)-3-(4-(3-((2S,4S)-1-(2-((3-(2,6-dioxopiperidin-3-yl)-1-methyl-1H-indazol-6-yl)amino)-2-oxoethyl)-2-methylpiperidin-4-yl)propoxy)-2-methylphenyl)picolinic acid], the DC50 is less than 0.01 µM and the “Ymin (24 h)” value is “A (Ymin < 30%)”.
Consider `Cn1nc(C2CCC(=O)NC2=O)c2ccc(NC(=O)CN3CCC(CCCOc4cccc(-c5ccc(N6CCc7cccc(C(=O)Nc8nc9ccccc9s8)c7C6)nc5C(=O)O)c4C(F)(F)F)CC3)c(F)c21` (stereo not drawn) [Compound 182], for which the DC50 is 0.01 to 0.1 µM and the “Ymin (24 h)” value is reported as “B (30% ≤ Ymin < 50%)”.
On the same counts, the results for `Cn1nc(C2CCC(=O)NC2=O)c2ccc(NC(=O)CN3CCC4(CC3)CC(COc3ccc(-c5ccc(N6CCc7cccc(C(=O)Nc8nc9ccccc9s8)c7C6)nc5C(=O)O)c(C(F)(F)F)c3)C4)c(F)c21` (stereo not drawn) [Compound 186] are 0.01 to 0.1 µM and “B (30% ≤ Ymin < 50%)”.
The matching figures for `Cc1cc(OC[C@@H](C)CC2CCN(CC(=O)Nc3ccc4c(C5CCC(=O)NC5=O)nn(C)c4c3)CC2)ccc1-c1ccc(N2CCc3ccnc(C(=O)Nc4nc5ccccc5s4)c3C2)nc1C(=O)O` (single isomer, unassigned) [Compound 140b]: 0.01 to 0.1 µM and “A (Ymin < 30%)”.
On the same counts, the results for `Cc1cc(OC[C@H](C)CC2CCN(CC(=O)Nc3ccc4c(C5CCC(=O)NC5=O)nn(C)c4c3)CC2)ccc1-c1ccc(N2CCc3ccnc(C(=O)Nc4nc5ccccc5s4)c3C2)nc1C(=O)O` (single isomer, unassigned) [Compound 140a] are less than 0.01 µM and “A (Ymin < 30%)”.
In the case of `Cc1cc(OC2CCC3(CC2)CCN(CC(=O)Nc2ccc4c(C5CCC(=O)NC5=O)nn(C)c4c2)CC3)ccc1-c1ccc(N2CCc3cccc(C(=O)Nc4nc5ccccc5s4)c3C2)nc1C(=O)O` (stereo not drawn) [Compound 221], the DC50 is less than 0.01 µM and the “Ymin (24 h)” value is listed as “A (Ymin < 30%)”.
For the compound `Cn1nc(C2CCC(=O)NC2=O)c2ccc(NC(=O)CN3CCC4(CC3)CC(Oc3cccc(-c5ccc(N6CCc7cccc(C(=O)Nc8nc9ccccc9s8)c7C6)nc5C(=O)O)c3C(F)(F)F)C4)nc21` (stereo not drawn) [Compound 192, 6-(8-(benzo[d]thiazol-2-ylcarbamoyl)-3,4-dihydroisoquinolin-2(1H)-yl)-3-(3-((7-(2-((3-(2,6-dioxopiperidin-3-yl)-1-methyl-1H-pyrazolo[3,4-b]pyridin-6-yl)amino)-2-oxoethyl)-7-azaspiro[3.5]nonan-2-yl)oxy)-2-(trifluoromethyl)phenyl)picolinic acid], the DC50 is less than 0.01 µM and the “Ymin (24 h)” value is given as “B (30% ≤ Ymin < 50%)”.
On the same counts, the results for `C[C@@H]1C[C@H](CCCOc2ccc(-c3ccc(N4CCc5cccc(C(=O)Nc6nc7ccccc7s6)c5C4)nc3C(=O)O)c(C(F)(F)F)c2)CCN1CC(=O)Nc1ccc2c(C3CCC(=O)NC3=O)nn(C)c2c1` (stereo partly drawn) [Compound 209c] are less than 0.01 µM and “A (Ymin < 30%)”.
The matching figures for `Cc1cc(OC[C@H]2C[C@H]2C2CCN(CC(=O)Nc3ccc4c(C5CCC(=O)NC5=O)nn(C)c4c3)CC2)ccc1-c1ccc(N2CCc3cccc(C(=O)Nc4nc5ccccc5s4)c3C2)nc1C(=O)O` (single isomer, unassigned) [Compound 1003c]: less than 0.01 µM and “A (Ymin < 30%)”.
The matching figures for `COc1c(NC(=O)CN2CCC3(CC2)CC(Oc2ccc(-c4ccc(N5CCc6cccc(C(=O)Nc7nc8ccccc8s7)c6C5)nc4C(=O)O)c(C(F)(F)F)c2)C3)ccc2c(C3CCC(=O)NC3=O)nn(C)c12` (stereo not drawn) [Compound 172, 6-(8-(benzo[d]thiazol-2-ylcarbamoyl)-3,4-dihydroisoquinolin-2(1H)-yl)-3-(4-((7-(2-((3-(2,6-dioxopiperidin-3-yl)-7-methoxy-1-methyl-1H-indazol-6-yl)amino)-2-oxoethyl)-7-azaspiro[3.5]nonan-2-yl)oxy)-2-(trifluoromethyl)phenyl)picolinic acid]: 0.01 to 0.1 µM and “B (30% ≤ Ymin < 50%)”.
As for `Cn1nc(C2CCC(=O)NC2=O)c2ccc(NC(=O)CN3CCC4(CC3)CC(Oc3ccc(-c5ccc(N6CCc7cccc(C(=O)Nc8nc9ccccc9s8)c7C6)nc5C(=O)O)c(C(F)(F)F)c3)C4)c(F)c21` (stereo not drawn) [Compound 189], the DC50 was less than 0.01 µM and the “Ymin (24 h)” value is listed as “B (30% ≤ Ymin < 50%)”.
On to `Cc1c(OCCC[C@H]2CCN(CC(=O)Nc3ccc4c(C5CCC(=O)NC5=O)nn(C)c4c3)[C@H](C)C2)cccc1-c1ccc(N2CCc3ccnc(C(=O)Nc4nc5ccccc5s4)c3C2)nc1C(=O)O` (stereo partly drawn) [Compound 216c], for which the DC50 lay within 0.01 to 0.1 µM and the “Ymin (24 h)” value is listed as “B (30% ≤ Ymin < 50%)”.
On the same counts, the results for `Cc1cc2c(C3CCC(=O)NC3=O)nn(C)c2cc1NC(=O)CN1CCC2(CC1)CC(COc1ccc(-c3ccc(N4CCc5cccc(C(=O)Nc6nc7ccccc7s6)c5C4)nc3C(=O)O)c(C)c1)C2` (stereo not drawn) [Compound 125] are 0.01 to 0.1 µM and “B (30% ≤ Ymin < 50%)”.
For `C[C@@H]1CC(CCCOc2cccc(-c3ccc(N4CCc5cccc(C(=O)Nc6nc7ccccc7s6)c5C4)nc3C(=O)O)c2C(F)(F)F)CCN1CC(=O)Nc1ccc2c(C3CCC(=O)NC3=O)nn(C)c2c1` (stereo partly drawn) [Compound 215d], the DC50 was in the range of 0.01 to 0.1 µM and the “Ymin (24 h)” value is listed as “B (30% ≤ Ymin < 50%)”.
